From patent US6500853B1, “Inhibitors of phospholipase enzymes” (Genetics Institute, LLC, priority 1998, dated 2002)

Target: T1, cPLA2 (Homo sapiens, UniProt P47712)
T1 sequence (P47712 1-749): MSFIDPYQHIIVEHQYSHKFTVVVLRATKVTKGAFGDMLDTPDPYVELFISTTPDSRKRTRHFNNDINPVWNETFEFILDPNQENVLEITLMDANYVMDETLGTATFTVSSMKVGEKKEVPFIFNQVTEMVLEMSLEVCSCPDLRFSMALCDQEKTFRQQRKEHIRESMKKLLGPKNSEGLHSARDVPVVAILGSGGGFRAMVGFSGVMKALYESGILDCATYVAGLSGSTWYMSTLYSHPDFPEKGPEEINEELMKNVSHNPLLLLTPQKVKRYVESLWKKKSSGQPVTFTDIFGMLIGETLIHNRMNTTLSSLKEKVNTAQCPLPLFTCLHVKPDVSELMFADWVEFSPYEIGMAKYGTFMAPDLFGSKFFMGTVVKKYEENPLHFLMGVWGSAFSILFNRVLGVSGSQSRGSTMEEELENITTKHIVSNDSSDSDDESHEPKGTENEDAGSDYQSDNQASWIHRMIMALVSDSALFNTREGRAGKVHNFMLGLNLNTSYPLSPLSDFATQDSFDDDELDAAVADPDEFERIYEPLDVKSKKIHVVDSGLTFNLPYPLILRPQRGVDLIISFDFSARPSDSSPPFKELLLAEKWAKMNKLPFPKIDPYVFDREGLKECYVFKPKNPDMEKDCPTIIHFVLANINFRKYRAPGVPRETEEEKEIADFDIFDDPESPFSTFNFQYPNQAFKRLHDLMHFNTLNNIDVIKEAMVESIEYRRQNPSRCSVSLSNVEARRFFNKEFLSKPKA
Assay: Coumarin Assay (cPLA2 inhibition)
Type: biochemical
Details: for inhibition at 10 µM: CONCENTRATION 10 micromolar; for inhibition at 12.5 µM: CONCENTRATION 12.5 micromolar; for inhibition at 70 µM: CONCENTRATION 70 micromolar
Experimental: Table I reports data for the compounds described in the examples above in cPLA2 inhibition assays (described below). In the data columns of Tables I and II, assay results are reported as a percent inhibition at the concentration specified.
7-hydroxycoumarinyl 6-heptenoate was used as a monomeric substrate for cPLA2 as reported previously (Huang, Z. et al., 1994, Nalytical Biochemistry 222, 110-115). Inhibitors were mixed with 200 μL assay buffer (80 mM Heped, pH 7.5, 1 mM EDTA) containing 60 μM 7-hydroxycoumarinyl 6-heptenoate. The reaction was initiated by adding 4 μg cPLA2 in 50 μL assay buffer. Hydrolysis of the 7-hydroxycounarimyl 6-heptenoate ester was monitored in a fluorometer by exciting at 360 nm and monitoring emission at 460 nm. Enzyme activity is proportional to the increase in emission at 460 nm per minute. In the presence of a cPLA2 inhibitor, the rate of increase is less. The percent inhibition for corresponding concentrations of compounds herein in this Coumarin assay are provided below in Table I.

[1] = CONCENTRATION 50 micromolar, read-out: PERCENT INHIBITION @

## COc1cc(C(=O)NS(=O)(=O)c2nnc(NC(C)=O)s2)ccc1Cc1cn(C(c2ccccc2)c2ccccc2)c2ccc(NC(=O)OC3CCCC3)cc12 [Example 34, cyclopentyl N-(3-{4-[({[5-(acetylamino)-1,3,4-thiadiazol-2-yl]sulfonyl}amino)carbonyl]-2-methoxybenzyl}-1-benzhydryl-1H-indol-5-yl)carbamate]
CONCENTRATION 2 micromolar, read-out: PERCENT INHIBITION @
  inhibition at 2 µM: 50%
CONCENTRATION 2.5 micromolar, read-out: PERCENT INHIBITION @
  inhibition at 2.5 µM: 57%

## COc1cc(C(=O)NS(=O)(=O)c2ccc(N3N=C(C)CC3=O)cc2)ccc1Cc1cn(C(c2ccccc2)c2ccccc2)c2ccc(NC(=O)OC3CCCC3)cc12 [Example 35, cyclopentyl N-(1-benzhydryl-3-{2-methoxy-4[({[4-(3-methyl-5-oxo-4,5-dihydro-1H-pyrazol-1-yl)phenyl]sulfonyl}amino)carbonyl]benzyl}-1H-indol-5-yl)carbamate]
read-out: PERCENT INHIBITION @
  inhibition at 10 µM: 23%
CONCENTRATION 20 micromolar, read-out: PERCENT INHIBITION @
  inhibition at 20 µM: 42%
CONCENTRATION 41 micromolar, read-out: PERCENT INHIBITION @
  inhibition at 41 µM: 50%

## COc1cc(C(=O)NS(=O)(=O)c2ccccc2C)ccc1Cc1cn(C(c2ccccc2)c2ccccc2)c2ccc([N+](=O)[O-])cc12 [Example 36, N-{4-[(1-benzhydryl-5-nitro-1H-indol-3-yl)methyl]-3-methoxybenzoyl}-2-methylbenzenesulfonamide]
CONCENTRATION 0.22 micromolar, read-out: PERCENT INHIBITION @
  inhibition at 0.22 µM: 50%
CONCENTRATION 0.25 micromolar, read-out: PERCENT INHIBITION @
  inhibition at 0.25 µM: 60%
CONCENTRATION 0.32 micromolar, read-out: PERCENT INHIBITION @
  inhibition at 0.32 µM: 50%
CONCENTRATION 0.45 micromolar, read-out: PERCENT INHIBITION @
  inhibition at 0.45 µM: 50%

## COc1cc(C(=O)NS(=O)(=O)c2ccccc2C)ccc1Cc1cn(C(c2ccccc2)c2ccccc2)c2ccc(NC(=O)C3CCCC3)cc12 [Example 43, N-{1-benzhydryl-3-[2-methoxy-4-({[(2-methylphenyl)sulfonyl]amino}carbonyl)benzyl]-1H-indol-5-yl}cyclopentanecarboxamide]
CONCENTRATION 12 micromolar, read-out: PERCENT INHIBITION @
  inhibition at 12 µM: 50%
CONCENTRATION 14 micromolar, read-out: PERCENT INHIBITION @
  inhibition at 14 µM: 50%

## O=C(Nc1cccc(C(=O)O)c1)C(=O)c1cn(Cc2ccc(COc3cc(C(F)(F)F)cc(C(F)(F)F)c3)cc2)c2ccccc12 [Example 60, 3-({2-[1-(4-{[3,5-bis(trifluoromethyl)phenoxy]methyl}benzyl)-1H-indol-3yl]-2oxoacetyl}amino)benzoic acid]
read-out: PERCENT INHIBITION @
  inhibition at 12.5 µM: 50%

## O=C(Nc1cccc(C(=O)O)c1)C(=O)c1cn(CCCOc2ccc(Cc3ccccc3)cc2)c2ccccc12 [Example 62, 3-[(2-{1-[3-(4-benzylphenoxy)propyl]-1H-indol-3-yl}-2-oxoacetyl)amino]benzoic acid]
CONCENTRATION 7 micromolar, read-out: PERCENT INHIBITION @
  inhibition at 7 µM: 50%
read-out: PERCENT INHIBITION @
  inhibition at 12.5 µM: 86%

## O=C(Nc1cccc(C(=O)O)c1)C(=O)c1cn(Cc2ccccc2S(=O)(=O)Cc2ccccc2)c2ccccc12 [Example 64, 3-[(2-{1-[2-(benzylsulfonyl)benzyl]-1H-indol-3-yl}-2-oxoacetyl)amino]benzoic acid]
CONCENTRATION 32 micromolar, read-out: PERCENT INHIBITION @
  inhibition at 32 µM: 50%
CONCENTRATION 37 micromolar, read-out: PERCENT INHIBITION @
  inhibition at 37 µM: 50%

## O=C(O)C(=O)c1cn(Cc2ccc(Cc3ccccc3)cc2)c2ccc(OCc3ccccc3)cc12 [Example 69, 2-[1-(4-benzylbenzyl)-5-(benzyloxy)-1H-indol-3-yl]-2-oxoacetic acid]
read-out: PERCENT INHIBITION @
  inhibition at 12.5 µM: 50%

## O=C(O)C(=O)c1cn(Cc2ccc(C(F)(F)F)cc2C(F)(F)F)c2ccc(OCc3ccccc3)cc12 [Example 70, 2-{5-(benzyloxy)-1-[2,4-bis(trifluoromethyl)benzyl]-1H-indol3-yl}-2-oxoacetic acid]
CONCENTRATION 50 micromolar
  PERCENT INHIBITION @: 40%
[1]
  inhibition at 50 µM: 39%

## O=C(Nc1cccc(C(=O)O)c1)C(=O)c1cn(Cc2ccc(Cc3ccccc3)cc2)c2ccc(OCc3ccccc3)cc12 [Example 71, 3-({2-[1-(4-benzylbenzyl)-5-(benzyloxy)-1H-indol-3-yl]-2-oxoacetyl}amino)benzoic acid]
CONCENTRATION 1.5 micromolar, read-out: PERCENT INHIBITION @
  inhibition at 1.5 µM: 50%
CONCENTRATION 3.5 micromolar, read-out: PERCENT INHIBITION @
  inhibition at 3.5 µM: 50%
CONCENTRATION 3.8 micromolar, read-out: PERCENT INHIBITION @
  inhibition at 3.8 µM: 50%
CONCENTRATION 6 micromolar, read-out: PERCENT INHIBITION @
  inhibition at 6 µM: 69%

## O=C(Nc1cc(C(=O)O)cc(C(=O)O)c1)C(=O)c1cn(Cc2ccc(C(F)(F)F)cc2C(F)(F)F)c2ccc(OCc3ccccc3)cc12 [Example 72, 5-[(2-{5-(benzyloxy)-1-[2,4-bis(trifluoromethyl)benzyl]-1H-indol-3-yl}-2-oxoacetyl)amino]isophthalic acid]
read-out: PERCENT INHIBITION @
  inhibition at 12.5 µM: 50%

## O=C(O)Cc1cn(CC2CC2)c2ccc(Br)cc12 [Example 77, 2-[5-bromo-1-(cyclopropylmethyl)-1H-indol-3-yl]acetic acid]
CONCENTRATION 160 micromolar, read-out: PERCENT INHIBITION @
  inhibition at 160 µM: 50%
CONCENTRATION 180 micromolar, read-out: PERCENT INHIBITION @
  inhibition at 180 µM: 50%

## O=C(O)Cc1cn(CC2CC2)c2ccc(-c3cccs3)cc12 [Example 78, 2-[1-(cyclopropylmethyl)-5-(2-thienyl)-1H-indol-3-yl]acetic acid]
CONCENTRATION 80 micromolar, read-out: PERCENT INHIBITION @
  inhibition at 80 µM: 50%
CONCENTRATION 110 micromolar, read-out: PERCENT INHIBITION @
  inhibition at 110 µM: 50%

## O=C(O)Cc1cn(CC2CC2)c2ccc(-c3cccc(C(F)(F)F)c3)cc12 [Example 79, 2-{1-(cyclopropylmethyl)-5-[3-(trifluoromethyl)phenyl]-1H-indol-3-yl}acetic acid]
CONCENTRATION 60 micromolar, read-out: PERCENT INHIBITION @
  inhibition at 60 µM: 50%
CONCENTRATION 65 micromolar, read-out: PERCENT INHIBITION @
  inhibition at 65 µM: 50%

## O=C(O)Cc1cn(Cc2ccccc2)c2ccc(-c3ccccc3)cc12 [Example 81, 2-(1-benzyl-5-phenyl-1H-indol-3-yl)acetic acid]
read-out: PERCENT INHIBITION @
  inhibition at 70 µM: 50%
CONCENTRATION 100 micromolar, read-out: PERCENT INHIBITION @
  inhibition at 100 µM: 46%

## O=C1NC(=O)/C(=C\c2cn(CCCOc3cccc(Cc4ccccc4)c3)c3ccccc23)S1 [Example 82A, 5-((E)-{1-[3-(3-benzylphenoxy)propyl]-1H-indol-3-yl}methylidene)-1,3-thiazolane-2,4-dione]
CONCENTRATION 46 micromolar, read-out: PERCENT INHIBITION @
  inhibition at 46 µM: 50%
[1]
  inhibition at 50 µM: 50%

## O=C(O)CN1C(=O)S/C(=C/c2cn(CCCOc3cccc(Cc4ccccc4)c3)c3ccccc23)C1=O [Example 82C, 2-[5-((E)-{1-[3-(3-benzylphenoxy)propyl]-1H-indol-3-yl}methylidene)-2,4-dioxo-1,3-thiazolan-3-yl]acetic acid]
CONCENTRATION 8 micromolar, read-out: PERCENT INHIBITION @
  inhibition at 8 µM: 50%
read-out: PERCENT INHIBITION @
  inhibition at 10 µM: 50%

## O=C(O)CCc1cn(CCCOc2cccc(Cc3ccccc3)c2)c2ccccc12 [Example 83, 3-{1-[3-(3-benzylphenoxy)propyl]-1H-indol-3-yl}propanoic acid]
CONCENTRATION 48 micromolar, read-out: PERCENT INHIBITION @
  inhibition at 48 µM: 50%
read-out: PERCENT INHIBITION @
  inhibition at 70 µM: 50%

## Cc1c(Cc2ccc(C(=O)O)cc2)c2cc(Cl)ccc2n1C(c1ccccc1)c1ccccc1 [Example 88, 4-[(1-benzhydryl-5-chloro-2-methyl-1H-indol-3-yl)methyl]benzoic acid]
CONCENTRATION 1.25 micromolar
  PERCENT INHIBITION @: 53%
CONCENTRATION 1.25 micromolar, read-out: PERCENT INHIBITION @
  inhibition at 1.25 µM: 50%
CONCENTRATION 1.32 micromolar, read-out: PERCENT INHIBITION @
  inhibition at 1.32 µM: 50%
